This is an account of results in ChEMBL document CHEMBL4354801, “Design, Synthesis, and Structure-Activity Relationships of 1,2,3-Triazole Benzenesulfonamides as New Selective Leucine-Zipper and Sterile-α Motif Kinase (ZAK) Inhibitors” (J Med Chem, 2020).

In data set [1] the target is T1, Mitogen-activated protein kinase kinase kinase 20 (Homo sapiens, UniProt Q9NYL2). The experiment in a line: Inhibition of N-terminal GST-tagged recombinant human full-length ZAK expressed in baculovirus infected Sf9 insect cells using MBP as substrate after 30 mins by ADP-Glo assay.
T1 sequence (Q9NYL2 whole entry): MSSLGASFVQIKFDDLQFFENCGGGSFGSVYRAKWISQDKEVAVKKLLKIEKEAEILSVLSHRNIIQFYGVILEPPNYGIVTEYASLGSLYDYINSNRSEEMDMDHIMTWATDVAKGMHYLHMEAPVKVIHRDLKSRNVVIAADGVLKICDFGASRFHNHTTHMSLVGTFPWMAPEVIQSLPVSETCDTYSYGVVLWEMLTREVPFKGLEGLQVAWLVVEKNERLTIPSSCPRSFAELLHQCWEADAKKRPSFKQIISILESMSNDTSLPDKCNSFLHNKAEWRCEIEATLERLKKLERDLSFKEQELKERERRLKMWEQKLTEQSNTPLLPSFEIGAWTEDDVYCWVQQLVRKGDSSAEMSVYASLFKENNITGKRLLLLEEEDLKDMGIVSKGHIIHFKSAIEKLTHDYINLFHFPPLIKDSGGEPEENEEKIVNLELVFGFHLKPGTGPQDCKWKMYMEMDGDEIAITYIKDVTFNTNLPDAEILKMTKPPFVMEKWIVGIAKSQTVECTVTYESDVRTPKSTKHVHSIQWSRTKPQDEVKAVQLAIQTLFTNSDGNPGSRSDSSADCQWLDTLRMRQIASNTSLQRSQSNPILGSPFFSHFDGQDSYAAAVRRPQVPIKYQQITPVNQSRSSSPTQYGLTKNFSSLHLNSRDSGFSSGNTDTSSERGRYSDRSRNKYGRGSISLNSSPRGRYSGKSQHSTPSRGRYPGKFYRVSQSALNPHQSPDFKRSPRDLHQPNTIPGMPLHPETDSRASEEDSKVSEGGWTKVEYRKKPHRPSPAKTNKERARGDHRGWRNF
Data set [2] deals with Serine/threonine-protein kinase B-raf (Homo sapiens, UniProt P15056, V600E). The experiment in a line: Inhibition of recombinant human B-RAF V600E mutant using Ser/Thr3 as substrate after 1 hr by FRET-based Z'-Lyte assay.
Serine/threonine-protein kinase B-raf, sequence (P15056 2-766 V600E limits assumed): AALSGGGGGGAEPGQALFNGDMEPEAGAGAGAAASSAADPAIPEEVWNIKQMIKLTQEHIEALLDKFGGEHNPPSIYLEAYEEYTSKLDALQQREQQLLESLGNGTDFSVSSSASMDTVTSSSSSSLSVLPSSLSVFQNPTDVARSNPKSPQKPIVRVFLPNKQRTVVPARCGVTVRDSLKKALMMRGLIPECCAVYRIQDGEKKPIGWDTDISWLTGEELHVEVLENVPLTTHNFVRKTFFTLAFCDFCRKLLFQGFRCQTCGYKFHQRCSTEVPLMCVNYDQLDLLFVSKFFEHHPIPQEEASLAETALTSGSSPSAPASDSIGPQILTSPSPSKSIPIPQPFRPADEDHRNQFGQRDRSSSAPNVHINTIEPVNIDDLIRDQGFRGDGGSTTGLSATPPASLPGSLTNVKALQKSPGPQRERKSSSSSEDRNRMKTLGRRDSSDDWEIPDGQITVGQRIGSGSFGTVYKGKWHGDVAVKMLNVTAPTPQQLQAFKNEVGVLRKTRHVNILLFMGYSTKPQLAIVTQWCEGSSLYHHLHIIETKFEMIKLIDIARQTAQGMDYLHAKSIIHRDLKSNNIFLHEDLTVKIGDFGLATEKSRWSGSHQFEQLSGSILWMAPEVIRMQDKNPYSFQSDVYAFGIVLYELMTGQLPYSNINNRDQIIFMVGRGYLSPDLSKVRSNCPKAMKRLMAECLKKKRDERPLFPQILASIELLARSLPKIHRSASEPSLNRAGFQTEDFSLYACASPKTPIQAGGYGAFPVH
The next data set deals with LIM domain kinase 1 (Homo sapiens, UniProt P53667). The experiment in a line: Binding affinity to human LIMK1.
LIM domain kinase 1, sequence (P53667 whole entry, the tested form may be a part): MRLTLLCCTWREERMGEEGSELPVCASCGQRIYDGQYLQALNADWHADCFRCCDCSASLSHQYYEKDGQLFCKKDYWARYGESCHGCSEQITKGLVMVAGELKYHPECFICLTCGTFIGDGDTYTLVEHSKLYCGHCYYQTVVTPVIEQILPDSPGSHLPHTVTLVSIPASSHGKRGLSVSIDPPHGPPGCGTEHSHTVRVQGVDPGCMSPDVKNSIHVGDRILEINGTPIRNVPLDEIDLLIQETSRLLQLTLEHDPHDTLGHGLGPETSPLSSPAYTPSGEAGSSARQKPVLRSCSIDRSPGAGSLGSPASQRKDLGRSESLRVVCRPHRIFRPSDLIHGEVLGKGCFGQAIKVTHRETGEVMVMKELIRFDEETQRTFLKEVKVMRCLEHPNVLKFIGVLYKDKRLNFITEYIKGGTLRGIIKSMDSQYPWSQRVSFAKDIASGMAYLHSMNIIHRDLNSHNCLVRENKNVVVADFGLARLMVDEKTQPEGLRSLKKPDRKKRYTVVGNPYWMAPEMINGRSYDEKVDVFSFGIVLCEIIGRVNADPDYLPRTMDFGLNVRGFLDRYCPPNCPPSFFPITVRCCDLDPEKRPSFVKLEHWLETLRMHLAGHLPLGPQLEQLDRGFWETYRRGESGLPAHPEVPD
A further data set addresses LIM domain kinase 2 (Homo sapiens, UniProt P53671). The experiment in a line: Binding affinity to human LIMK2.
Data set [3] in a line: AUC (0 to t) in Sprague-Dawley rat at 2.5 mg/kg, iv by HPLC/MS analysis. The format is ADME, organism-based. The conditions noted are these: in vivo.
The target of data set [4] is T2, Tyrosine-protein kinase ABL1 (Homo sapiens, UniProt P00519). The experiment in a line: Binding affinity to human ABL1.
T2 sequence (P00519 whole entry): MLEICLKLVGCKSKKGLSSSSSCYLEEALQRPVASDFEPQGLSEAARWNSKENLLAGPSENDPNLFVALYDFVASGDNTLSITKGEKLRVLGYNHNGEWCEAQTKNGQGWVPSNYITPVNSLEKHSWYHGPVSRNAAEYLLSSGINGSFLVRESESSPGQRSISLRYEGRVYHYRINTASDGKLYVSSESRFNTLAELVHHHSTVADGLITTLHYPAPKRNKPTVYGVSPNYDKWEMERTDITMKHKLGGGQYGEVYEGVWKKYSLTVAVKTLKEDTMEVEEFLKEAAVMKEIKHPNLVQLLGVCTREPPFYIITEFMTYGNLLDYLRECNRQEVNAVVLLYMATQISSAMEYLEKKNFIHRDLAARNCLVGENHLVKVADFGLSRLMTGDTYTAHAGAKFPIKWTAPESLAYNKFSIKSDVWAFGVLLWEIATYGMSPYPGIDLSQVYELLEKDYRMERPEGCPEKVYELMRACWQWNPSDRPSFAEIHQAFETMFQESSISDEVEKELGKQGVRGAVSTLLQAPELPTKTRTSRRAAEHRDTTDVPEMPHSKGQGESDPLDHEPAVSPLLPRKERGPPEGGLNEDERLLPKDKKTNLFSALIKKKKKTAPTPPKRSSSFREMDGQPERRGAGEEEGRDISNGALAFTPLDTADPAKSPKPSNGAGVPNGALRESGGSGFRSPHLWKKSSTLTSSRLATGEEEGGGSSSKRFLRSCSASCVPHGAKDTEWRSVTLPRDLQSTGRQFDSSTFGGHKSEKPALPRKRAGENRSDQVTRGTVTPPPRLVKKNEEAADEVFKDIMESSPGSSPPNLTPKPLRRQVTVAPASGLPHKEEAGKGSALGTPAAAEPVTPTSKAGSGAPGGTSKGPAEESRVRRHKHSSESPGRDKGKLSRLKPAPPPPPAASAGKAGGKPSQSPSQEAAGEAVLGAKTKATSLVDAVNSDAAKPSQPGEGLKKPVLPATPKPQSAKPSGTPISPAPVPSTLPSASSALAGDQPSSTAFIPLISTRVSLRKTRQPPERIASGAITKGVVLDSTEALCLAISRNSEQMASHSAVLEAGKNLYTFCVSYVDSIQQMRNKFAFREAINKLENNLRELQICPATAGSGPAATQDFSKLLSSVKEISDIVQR
Data set [5] can be described thus: AUC (0 to t) in Sprague-Dawley rat at 10 mg/kg, po by HPLC/MS analysis. Type of data set: ADME, organism-based. As to conditions: in vivo; call rule not given here.
Data set [6] in a line: AUC (0 to infinity) in Sprague-Dawley rat at 2.5 mg/kg, iv by HPLC/MS analysis. Type of data set: ADME, organism-based. Also noted: dose 2.5 mg/kg, route intravenous, time infinity. As to conditions: in vivo.
Data set [7] deals with T1, Mitogen-activated protein kinase kinase kinase 20. The experiment in a line: Binding affinity to human ZAK.
The target in data set [8] is Receptor-interacting serine/threonine-protein kinase 2 (Homo sapiens, UniProt O43353). The experiment in a line: Binding affinity to human RIPK2.
Receptor-interacting serine/threonine-protein kinase 2, sequence (O43353 whole entry): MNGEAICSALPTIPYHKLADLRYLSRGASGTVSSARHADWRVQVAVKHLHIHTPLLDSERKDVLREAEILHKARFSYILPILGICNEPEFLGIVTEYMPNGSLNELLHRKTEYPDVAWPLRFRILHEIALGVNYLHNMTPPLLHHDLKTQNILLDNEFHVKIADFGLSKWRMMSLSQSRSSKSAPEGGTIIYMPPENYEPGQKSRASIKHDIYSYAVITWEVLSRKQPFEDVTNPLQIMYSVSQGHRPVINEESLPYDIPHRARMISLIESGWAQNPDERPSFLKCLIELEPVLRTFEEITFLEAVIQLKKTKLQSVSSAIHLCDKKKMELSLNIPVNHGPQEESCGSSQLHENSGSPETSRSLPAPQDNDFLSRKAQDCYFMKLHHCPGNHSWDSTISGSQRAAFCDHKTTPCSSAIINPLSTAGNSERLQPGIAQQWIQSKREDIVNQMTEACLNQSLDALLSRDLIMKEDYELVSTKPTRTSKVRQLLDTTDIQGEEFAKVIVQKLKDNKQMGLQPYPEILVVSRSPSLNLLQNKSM
The nature of data set [9]: AUC (0 to infinity) in Sprague-Dawley rat at 10 mg/kg, po by HPLC/MS analysis. Type of data set: ADME, organism-based. Also noted: dose 10 mg/kg, route oral, time infinity. The conditions noted are these: in vivo.
A short description of data set [10]: Half life in Sprague-Dawley rat at 2.5 mg/kg, iv by HPLC/MS analysis. Type of data set: ADME, organism-based. As to conditions: in vivo.
A short description of data set [11]: Cmax in Sprague-Dawley rat at 10 mg/kg, po by HPLC/MS analysis. Type of data set: ADME, organism-based. Also noted: dose 10 mg/kg, route oral. The conditions noted are these: in vivo.
The subject of data set [12] is Rattus norvegicus. The experiment in a line: Anti-hypertrophic cardiomyopathy activity in SHR rat assessed as left ventricular weight level elevation at 2.5 mg/kg, po once daily for 8 weeks (reference value: 0.89 +/- 0.005 g). Type of data set: functional.
In data set [13] the target is T1, Mitogen-activated protein kinase kinase kinase 20. The experiment in a line: Binding affinity to ATP-binding site of human ZAK expressed in Escherichia coli by active site-dependent competition binding assay.
Data set [14] concerns Rattus norvegicus. The experiment in a line: Anti-hypertrophic cardiomyopathy activity in SHR rat assessed as whole heart weight level elevation at 10 mg/kg, po once daily for 8 weeks (reference value: 1.23 +/- 0.006 g). Type of data set: functional.
A short description of data set [15]: Half life in Sprague-Dawley rat at 10 mg/kg, po by HPLC/MS analysis. The format is ADME, organism-based. The conditions noted are these: in vivo.
Data set [16] can be described thus: Effect on ZAKalpha protein expression in rat H9C2 cells by Western blot analysis. For orientation: A western blot detects proteins with antibodies after separation by electrophoresis.
The nature of data set [17]: Cmax in Sprague-Dawley rat at 2.5 mg/kg, iv by HPLC/MS analysis. Type of data set: ADME, organism-based. On the set-up: dose 2.5 mg/kg, route intravenous. As to conditions: in vivo.
Data set [18] addresses T2, Tyrosine-protein kinase ABL1. The experiment in a line: Inhibition of human ABL1.
For data set [19], the target named is Tyrosine-protein kinase Lck (Homo sapiens, UniProt P06239). The experiment in a line: Binding affinity to human LCK.
Tyrosine-protein kinase Lck, sequence (P06239 whole entry): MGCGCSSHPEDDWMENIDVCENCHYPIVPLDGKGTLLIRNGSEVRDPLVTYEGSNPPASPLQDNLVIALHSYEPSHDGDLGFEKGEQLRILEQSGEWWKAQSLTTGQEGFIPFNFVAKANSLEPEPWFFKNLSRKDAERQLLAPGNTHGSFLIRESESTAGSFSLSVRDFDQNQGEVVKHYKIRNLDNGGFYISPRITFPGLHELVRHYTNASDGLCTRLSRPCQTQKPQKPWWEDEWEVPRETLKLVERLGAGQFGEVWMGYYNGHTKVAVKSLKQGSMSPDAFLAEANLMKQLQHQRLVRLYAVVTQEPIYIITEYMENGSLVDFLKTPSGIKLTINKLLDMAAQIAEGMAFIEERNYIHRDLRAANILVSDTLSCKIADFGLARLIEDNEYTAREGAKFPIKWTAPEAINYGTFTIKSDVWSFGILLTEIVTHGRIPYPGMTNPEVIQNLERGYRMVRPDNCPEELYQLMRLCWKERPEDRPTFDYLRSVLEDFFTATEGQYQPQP
For data set [20], the system named is Rattus norvegicus. The experiment in a line: Anti-hypertrophic cardiomyopathy activity in SHR rat assessed as left ventricular weight level elevation at 10 mg/kg, po once daily for 8 weeks (reference value: 0.89 +/- 0.005 g). Type of data set: functional.
In data set [21] the test system is Rattus norvegicus. The experiment in a line: Anti-hypertrophic cardiomyopathy activity in SHR rat assessed as whole heart weight level elevation at 2.5 mg/kg, po once daily for 8 weeks (reference value: 1.23 +/- 0.006 g). Type of data set: functional.
A short description of data set [22]: Oral bioavailability in Sprague-Dawley rat at 10 mg/kg by HPLC/MS analysis. The format is ADME, organism-based. The conditions noted are these: in vivo.
Data set [23] in a line: Clearance in Sprague-Dawley rat at 2.5 mg/kg, iv by HPLC/MS analysis. The format is ADME, organism-based. As to conditions: in vivo.
Data set [24] addresses Receptor-type tyrosine-protein kinase FLT3 (Homo sapiens, UniProt P36888, F691L). The experiment in a line: Binding affinity to human FLT3 F691L mutant.
In data set [25] the target is Tyrosine-protein kinase Blk (Homo sapiens, UniProt P51451). The experiment in a line: Binding affinity to human BLK.

LIM domain kinase 2, sequence (P53671 whole entry, the tested form may be a part): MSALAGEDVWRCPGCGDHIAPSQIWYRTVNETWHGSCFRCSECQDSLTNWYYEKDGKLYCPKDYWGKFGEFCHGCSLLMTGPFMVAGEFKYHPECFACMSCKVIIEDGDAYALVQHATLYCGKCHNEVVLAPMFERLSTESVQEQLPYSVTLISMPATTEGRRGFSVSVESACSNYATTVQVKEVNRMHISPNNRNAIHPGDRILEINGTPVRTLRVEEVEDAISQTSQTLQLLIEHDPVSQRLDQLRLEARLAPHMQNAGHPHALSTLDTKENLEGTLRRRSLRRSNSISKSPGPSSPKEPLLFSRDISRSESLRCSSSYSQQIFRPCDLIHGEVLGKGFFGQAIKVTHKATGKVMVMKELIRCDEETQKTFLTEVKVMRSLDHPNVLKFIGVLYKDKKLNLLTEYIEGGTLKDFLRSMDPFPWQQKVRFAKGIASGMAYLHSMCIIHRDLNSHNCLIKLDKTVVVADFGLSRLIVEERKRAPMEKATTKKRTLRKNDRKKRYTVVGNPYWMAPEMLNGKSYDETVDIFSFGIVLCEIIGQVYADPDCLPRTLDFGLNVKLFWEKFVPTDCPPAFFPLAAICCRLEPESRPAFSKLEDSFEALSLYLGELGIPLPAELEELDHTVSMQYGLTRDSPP

For orientation: IC50 means the concentration needed to halve the response being measured. Consider `Nc1ncc(-c2cn(-c3c(F)ccc(NS(=O)(=O)c4cccc(Cl)c4)c3F)nn2)cn1`, for which the half-maximal inhibitory concentration (IC50) was 8.9 nM in data set [1] and more than 1000 nM in [2].
Regarding `COc1n[nH]c2ncc(-c3cn(-c4c(F)ccc(NC(=O)c5cccc(Cl)c5)c4F)nn3)cc12`, the IC50 came to 54.3 nM in [1] and 11.4 nM in [2].
`COc1n[nH]c2ncc(-c3cn(-c4cccc(NS(=O)(=O)c5cccc(Cl)c5)c4F)nn3)cc12`: the IC50 stood at 3 nM in data set [1] and 795 nM in data set [2].
The matching figures for `COc1n[nH]c2ncc(-c3ncc(-c4c(F)ccc(NS(=O)(=O)c5cccc(Cl)c5)c4F)[nH]3)cc12`: 983 nM and more than 1000 nM.
The matching figures for `COc1n[nH]c2ncc(-c3cn(-c4c(F)ccc(NS(=O)(=O)c5ccccc5)c4F)nn3)cc12`: 3.8 nM and 39 nM.
In the same order, the values of `COc1n[nH]c2ncc(-c3cn(-c4c(F)ccc(NS(=O)(=O)c5ccc6ccccc6c5)c4F)nn3)cc12` are 4.5 nM and 856 nM.
As for `Nc1ccc(-c2cn(-c3c(F)ccc(NS(=O)(=O)c4cccc(Cl)c4)c3F)nn2)cn1`, the IC50 in [1] was 46.2 nM; in data set [2], more than 1000 nM.
As usually defined, the Kd is the free concentration of one partner at which half of the binding sites on the other are occupied at equilibrium, for simple one-to-one binding. Low values mean tighter binding, high ones weaker binding. The AUC(0-t) is the area under the concentration-time curve up to a stated or last time point. A high value points to high exposure. By AUC(0-inf) is commonly meant total exposure, with the tail of the curve extrapolated. Higher therefore signals high exposure. Usually half-life stands for the time in which the quantity being followed falls by half. Low readings indicate fast loss, high ones slow loss. A word on the Cmax: it is the highest concentration seen after dosing. Usually bioavailability stands for dose-corrected exposure relative to a reference, in per cent. By clearance is commonly meant the rate of elimination divided by the concentration. High values mean a high capacity for elimination, low ones a low capacity for elimination. As to `COc1n[nH]c2ncc(-c3cn(-c4c(F)ccc(NS(=O)(=O)c5cccc(-c6ccccc6)c5)c4F)nn3)cc12`, the Kd amounted to 23 nM at LIM domain kinase 1; 63 nM at LIM domain kinase 2; 15 nM in data set [4]; 8 nM in data set [7]; 57 nM in data set [8]; 8 nM in [13]. In addition, the results for the dissociation constant Kd in data set [19], in [24] and in [25] were 160 nM, 530 nM and 190 nM, respectively. Moreover, the IC50 in data set [1] is 4 nM; in data set [2], more than 1000 nM; in data set [18] it was 156 nM. In addition, the AUC(0-t) in data set [3] came to 27400 ng·h/mL; in [5], 71600 ng·h/mL. The AUC(0-inf) in data set [6] turned out to be 27900 ng·h/mL; in data set [9], 71800 ng·h/mL. For the same compound, the half-life in data set [10] is 1.6 h; in [15], 1.7 h. The values for the Cmax in [11] and in data set [17] were 16400 ng/mL and 34200 ng/mL, respectively. Moreover, the Activity is 0.82 g in the data set on Rattus norvegicus [12]; 1.13 g with Rattus norvegicus [14]; “Non-Toxic” in data set [16]; 0.78 g with Rattus norvegicus [20]; 1.18 g in the data set on Rattus norvegicus [21]. This compound had a bioavailability in data set [22] of 65.3%. Moreover, the clearance in data set [23] is 1.53 mL/min/kg.
`COc1n[nH]c2ncc(-c3nnc(-c4c(F)ccc(NS(=O)(=O)c5cccc(Cl)c5)c4F)o3)cc12`: the IC50 in data set [1] is 63.3 nM; in [2] it was more than 1000 nM.
The matching figures for `COc1n[nH]c2ncc(-c3cn(-c4c(F)ccc(NS(=O)(=O)c5cccc(C)c5)c4F)nn3)cc12`: 4.4 nM and 453 nM.
Take `COc1n[nH]c2ncc(-c3cn(-c4c(F)ccc(NS(=O)(=O)c5cccc(C#N)c5)c4F)nn3)cc12`: the IC50 stood at 3.3 nM in data set [1] and 470 nM in data set [2].
In the same order, the values of `COc1n[nH]c2ncc(-c3cn(-c4cccc(NS(=O)(=O)c5cccc(Cl)c5)c4)nn3)cc12` are 24.7 nM and more than 1000 nM.
The matching figures for `COc1n[nH]c2ncc(-c3cn(-c4cc(NS(=O)(=O)c5cccc(Cl)c5)ccc4F)nn3)cc12`: 5.7 nM and 334 nM.
Consider `COc1n[nH]c2ncc(-c3cn(-c4c(F)ccc(NS(=O)(=O)c5cccc(Cl)c5)c4F)nn3)cc12`, for which the half-inhibitory concentration (IC50) in data set [1] was 1.9 nM; in data set [2] it was 198 nM.
In the same order, the values of `COc1n[nH]c2ncc(-c3cn(-c4c(F)ccc(NC(=O)Cc5cccc(Cl)c5)c4F)nn3)cc12` are 85.7 nM and 83.1 nM.
The matching figures for `COc1n[nH]c2ncc(-c3cn(-c4c(F)ccc(NS(=O)(=O)c5cccc6ccccc56)c4F)nn3)cc12`: 4.2 nM and 126 nM.
In the case of `COc1n[nH]c2ncc(-c3cn(-c4c(F)ccc(NS(=O)(=O)c5cccc(C(C)C)c5)c4F)nn3)cc12`, the IC50 in data set [1] turned out to be 6.9 nM; in data set [2], 190 nM.
In the same order, the values of `COc1n[nH]c2ncc(-c3cn(-c4c(F)ccc(NS(=O)(=O)c5cccc(Br)c5)c4F)nn3)cc12` are 2.1 nM and 272 nM.
Consider `COc1cccc(S(=O)(=O)Nc2ccc(F)c(-n3cc(-c4cnc5[nH]nc(OC)c5c4)nn3)c2F)c1`, for which the 50% inhibitory concentration (IC50) in data set [1] came out at 2.3 nM; in data set [2], 272 nM.
Take `COc1n[nH]c2ncc(-c3cn(-c4c(F)ccc(NC(=O)Nc5cccc(Cl)c5)c4F)nn3)cc12`: the IC50 in [1] turned out to be 53 nM; in data set [2], 51.6 nM.
In the same order, the values of `COc1n[nH]c2ncc(C#Cc3c(F)ccc(NS(=O)(=O)c4cccc(Cl)c4)c3F)cc12` are 14.7 nM and more than 1000 nM.
The matching figures for `COc1n[nH]c2ncc(-c3nc(-c4c(F)ccc(NS(=O)(=O)c5cccc(Cl)c5)c4F)no3)cc12`: 29 nM and more than 1000 nM.
The matching figures for `COc1n[nH]c2ncc(-c3cn(-c4c(Cl)ccc(NS(=O)(=O)c5cccc(Cl)c5)c4Cl)nn3)cc12`: 413 nM and 436 nM.
